# Data from PMC5939596 (Cell chemical biology, 2016).
# Non-standard residues stand in square brackets, D forms with d. *: point of attachment. ACC = NC(=O)Cc1cc(=O)oc2cc(N*)ccc12; Tic = O=C(O)[C@@H]1Cc2ccccc2CN1; AMC = Cc1cc(=O)oc2cc(N*)ccc12; Cbz = O=C(OCc1ccccc1)*
# Legend:
# legumain [1] = target: T1, legumain (Homo sapiens, UniProt Q99538); test: pH dependence of legumain activity towards P1-Asn and P1-Asp substrates; assay type: biochemical
# T1 sequence (Q99538 18-323 limits assumed): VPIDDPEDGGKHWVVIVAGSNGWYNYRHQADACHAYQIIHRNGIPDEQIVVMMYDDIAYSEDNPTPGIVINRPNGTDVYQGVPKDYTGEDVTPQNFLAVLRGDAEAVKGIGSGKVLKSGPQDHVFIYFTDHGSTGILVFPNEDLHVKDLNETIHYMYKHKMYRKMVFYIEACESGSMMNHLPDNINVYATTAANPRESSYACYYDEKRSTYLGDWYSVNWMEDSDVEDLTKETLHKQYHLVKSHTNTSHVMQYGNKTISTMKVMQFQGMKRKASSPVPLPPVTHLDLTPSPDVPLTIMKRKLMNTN
# legumain [2] = target: T1, legumain; test: Kinetics of ACC substrate hydrolysis by legumain; assay type: biochemical; details: for kcat/Km: hydrolysis by legumain
# [3] = target: T2, autoactivated recombinant human legumain (Homo sapiens, UniProt Q99538); test: Km of legumain cleavage of Z-Ala-Ala-Asn-AMC; assay type: biochemical; details: 2.5 nM autoactivated rhLeg, substrate 1.565–200 nM, legumain assay buffer pH 5.8, 30°C
# T2 sequence (Q99538 18-323 limits assumed): T1 sequence (Q99538 18-323 limits assumed)
# [4] = target: T3, recombinant auto-activated legumain (46 kDa) (Homo sapiens, UniProt Q99538); test: Probe binding to recombinant enzyme; details: probe 10 nM, enzyme 50 nM, pH 5.8 and pH 7.2
# T3 sequence (Q99538 18-323 limits assumed): T1 sequence (Q99538 18-323 limits assumed)
# caspase-3 [5] = target: T4, caspase-3 (Homo sapiens, UniProt P42574); test: Probe binding in cytochrome c/dATP-activated FreeStyle 293-F cytosolic extract; details: probe 0–1 μM, pH 5.8 and 7.2, 5 or 30 min at 30°C, immunoblotting
# T4 sequence (P42574 29-175 limits assumed): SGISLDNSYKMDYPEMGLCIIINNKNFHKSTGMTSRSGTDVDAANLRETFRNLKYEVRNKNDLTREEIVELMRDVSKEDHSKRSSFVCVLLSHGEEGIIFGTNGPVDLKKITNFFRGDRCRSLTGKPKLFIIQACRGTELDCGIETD
# T4 sequence (P42574 176-277 limits assumed): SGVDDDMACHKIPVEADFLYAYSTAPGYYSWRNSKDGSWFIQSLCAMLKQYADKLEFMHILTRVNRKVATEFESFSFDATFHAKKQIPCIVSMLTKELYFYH
# legumain [6] = target: T1, legumain; test: Direct probe binding and inhibition of legumain in M38L cell lysate; assay type: biochemical; details: M38L lysate 3.5 μg total protein, probe 0–10 μM, pH 5.8, 30 min at 30°C
# legumain [7] = target: T1, legumain; test: Probe labelling in lysates of caspase-8/caspase-3 cotransfected M38L cells; assay type: cell-based; details: for probe labelling of legumain: probe 1 μM, 30 min at 30°C, pH 5.8 or 7.4, immunoblotting
# prolegumain (56 kDa) = target: T5, prolegumain (56 kDa) (Homo sapiens, UniProt Q99538); test: Probe binding to prolegumain; details: immunoblotting
# T5 sequence (Q99538 18-433): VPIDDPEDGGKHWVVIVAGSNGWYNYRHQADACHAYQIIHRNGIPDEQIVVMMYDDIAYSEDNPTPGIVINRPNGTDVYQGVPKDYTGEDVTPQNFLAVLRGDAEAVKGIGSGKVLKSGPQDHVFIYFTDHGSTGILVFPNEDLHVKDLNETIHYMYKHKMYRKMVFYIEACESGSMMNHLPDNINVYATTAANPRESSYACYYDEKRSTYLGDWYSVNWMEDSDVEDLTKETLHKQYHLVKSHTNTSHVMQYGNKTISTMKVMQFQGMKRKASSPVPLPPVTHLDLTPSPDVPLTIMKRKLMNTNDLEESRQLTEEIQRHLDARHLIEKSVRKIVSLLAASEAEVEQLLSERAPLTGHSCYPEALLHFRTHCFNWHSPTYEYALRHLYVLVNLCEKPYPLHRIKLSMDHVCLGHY
# caspase-3 [8] = target: T4, caspase-3; test: Probe labelling in lysates of caspase-8/caspase-3 cotransfected M38L cells; assay type: cell-based; details: probe 1 μM, 30 min at 30°C, pH 5.8 or 7.4, immunoblotting
# [9] = target: T2, autoactivated recombinant human legumain; test: Inhibition rate constants
# [10] = test system: legumain over-expressing M38L cells; details: time-course 0–24 h, immunoblotting
substance,measurement,setting,value
Ac-D-Tyr-Tic-Thr-Asn-ACC,optimal pH for legumain activity,legumain [1],5.8
Ac-[dY][Tic]TD-{ACC},optimal pH for legumain activity,legumain [1],4.5
Cbz-Ala-Ala-Asn-{ACC},kcat/Km,legumain [2],36100 s^−1M^−1
same,times faster cleaved than its P1-Asp analog,"legumain [2]; ratio of kcat/Km, Z-AAN-ACC versus Z-AAD-ACC",~ 22
Cbz-Ala-Ala-Asn-{AMC},Km,[3],25.7 µM
Cbz-Ala-Ala-Asp-{ACC},kcat/Km,legumain [2],1600 M⁻¹ s⁻¹
biotin-6-ahx-D-Tyr-Tic-Ser-Asp-AOMK [MP-L01] [listing 1 of 2 here],binding to recombinant auto-activated legumain,[4],bound by MP-L01 at pH 5.8 and not at pH 7.2
same,binding to active caspase-3,caspase-3 [5],only weakly bound
same,potency relative to either methylated probes (MP-L02 or -L03),legumain [6],approximately 100 fold
same,pH dependence of legumain binding,"legumain [7]; lysates of M38L cells, pH 5.8 versus 7.4",only detected at pH 5.8 and not at 7.4
same,probe labelling of legumain,legumain [7],only binds legumain
same,"binding to cellular, secreted or recombinant prolegumain (56 kDa)",prolegumain (56 kDa),did not bind
same,probe labelling of caspase-3,caspase-3 [8],could not detect such activity
same,inhibition rate constant (kobs/I) relative to the two methylated probes (MP-L02 and -L03),"[9]; 2.5 nM enzyme, Z-Ala-Ala-Asn-AMC substrate, pH 5.8, 30°C",approximately 100 fold
biotin-6-ahx-D-Tyr-Tic-Ser-Asp-AOMK [MP-L01] [listing 2 of 2 here],incubation time for maximal detection of probe in cells,[10],8 to 24 h
biotin-6-ahx-DEVD-AOMK [reference compound],binding to active caspase-3,caspase-3 [5],strongly bound
same,probe labelling of legumain,legumain [7],labels both legumain and caspase-3
same,probe labelling of caspase-3,caspase-3 [8],labels both legumain and caspase-3
same,"inhibition of recombinant legumain (kobs/I), lower efficiency than MP-L01",[9],20 fold
